Assay results as given in US20090326037A1 (priority 2005, published 2009).
Where “and” joins values, the source holds several entries; their conditions need not be identical. Equal values may be shown once. Where a name gives a salt, the structure may show the parent alone. Read-outs that look alike come from different tables or passages of the source.

Experiments:
[1] = test system: influenza A/Singapore/1/57 virus; experiment: microbe, parasite or virus in culture; format: cell-based; details: for Percent of inhibition of OD 490: added 30 min prior to infection
[2] = test system: avian influenza virus (H5N1); format: in vivo, white mice; details: orally
[3] = Toxicity (lethal effect, LD50) in mice; format: in vivo; details: endogastrically, observation 14 days
Method: (§1) Determination of toxicity of 1-methyl-2-phenylthiomethyl-3-carbethoxy-5-oxy-6-bromindol sulfon as compared with arbidol.
(§2) The administration of the preparations was carried out endogastrically, the period of observation of the animals was 14 days.

[4] = Toxicity (lethal effect, LD50) in rats; format: in vivo; details: endogastrically, observation 14 days
Method: as §1, §2

[5] = test system: influenza virus A/PR/8/34; format: cell-based; details: influenza virus A/PR/8/34, MDCK cells; concentration not given
influenza virus H3N2 = format: in vivo, mice
[6] = Influenza A virus, MDCK, read-out: percent of inhibition of viral reproduction

CCOC(=O)c1c(CSc2ccccc2)n(C)c2cc(Br)c(O)c(CN(C)C)c12 [Arbidol, 1-methyl-2-phenylthiomethyl-3-carbethoxy-4-dimethylaminomethyl-5-oxy-6-bromindol hydrochloride]
Percent of inhibition of OD 490 ([1]; A or D 5 μg/ml + Amantadin 0.3 μg/ml): 60% | Percent of inhibition of OD 490 ([1]; A or D 5 μg/ml + Amantadin 1 μg/ml): 68% | Percent of inhibition of OD 490 ([1]; A or D 5 μg/ml + Amantadin 5 μg/ml): 74% | Percent of inhibition of OD 490 ([1]; A or D 5 μg/ml + Amantadin 10 μg/ml): 81% | Percent of inhibition of OD 490 ([1]; A or D 5 μg/ml + Remantadin 0.3 μg/ml): 63% | Percent of inhibition of OD 490 ([1]; A or D 5 μg/ml + Remantadin 1 μg/ml): 71% | Percent of inhibition of OD 490 ([1]; A or D 5 μg/ml + Remantadin 5 μg/ml): 74% | Percent of inhibition of OD 490 ([1]; A or D 5 μg/ml + Remantadin 10 μg/ml): 82% | Percent of inhibition of OD 490 ([1]; A or D 5 μg/ml alone (Amantadin 0)): 38% | Percent of inhibition of OD 490 ([1]; A or D 5 μg/ml alone (Remantadin 0)): 38% | Percent of inhibition of OD 490 ([1]; A or D 10 μg/ml + Amantadin 0.3 μg/ml): 77% | Percent of inhibition of OD 490 ([1]; A or D 10 μg/ml + Amantadin 1 μg/ml): 81% | Percent of inhibition of OD 490 ([1]; A or D 10 μg/ml + Amantadin 5 μg/ml): 82% | Percent of inhibition of OD 490 ([1]; A or D 10 μg/ml + Amantadin 10 μg/ml): 85% | Percent of inhibition of OD 490 ([1]; A or D 10 μg/ml + Remantadin 0.3 μg/ml): 78% | Percent of inhibition of OD 490 ([1]; A or D 10 μg/ml + Remantadin 1 μg/ml): 80% | Percent of inhibition of OD 490 ([1]; A or D 10 μg/ml + Remantadin 5 μg/ml): 82% | Percent of inhibition of OD 490 ([1]; A or D 10 μg/ml + Remantadin 10 μg/ml): 86% | Percent of inhibition of OD 490 ([1]; A or D 10 μg/ml alone (Amantadin 0)): 67% | Percent of inhibition of OD 490 ([1]; A or D 10 μg/ml alone (Remantadin 0)): 67% | percent of inhibition of viral reproduction ([1]; Arbidol 3 μg/ml + Ribavirin 1 μg/ml): 19% | percent of inhibition of viral reproduction ([1]; Arbidol 3 μg/ml + Ribavirin 3 μg/ml): 30% | percent of inhibition of viral reproduction ([1]; Arbidol 3 μg/ml + Ribavirin 10 μg/ml): 52% | percent of inhibition of viral reproduction ([1]; Arbidol 3 μg/ml + Ribavirin 15 μg/ml): 54% | percent of inhibition of viral reproduction ([1]; Arbidol 10 μg/ml + Ribavirin 1 μg/ml): 26% | percent of inhibition of viral reproduction ([1]; Arbidol 10 μg/ml + Ribavirin 3 μg/ml): 35% | percent of inhibition of viral reproduction ([1]; Arbidol 10 μg/ml + Ribavirin 10 μg/ml): 85% | percent of inhibition of viral reproduction ([1]; Arbidol 10 μg/ml + Ribavirin 15 μg/ml): 82% | percent of inhibition of viral reproduction ([1]; Arbidol 15 μg/ml + Ribavirin 1 μg/ml): 43% | percent of inhibition of viral reproduction ([1]; Arbidol 15 μg/ml + Ribavirin 3 μg/ml): 41% | percent of inhibition of viral reproduction ([1]; Arbidol 15 μg/ml + Ribavirin 10 μg/ml): 82% | percent of inhibition of viral reproduction ([1]; Arbidol 15 μg/ml + Ribavirin 15 μg/ml): 80% | percent of inhibition of viral reproduction ([1]; Arbidol 20 μg/ml + Ribavirin 1 μg/ml): 65% | percent of inhibition of viral reproduction ([1]; Arbidol 20 μg/ml + Ribavirin 3 μg/ml): 68% | percent of inhibition of viral reproduction ([1]; Arbidol 20 μg/ml + Ribavirin 10 μg/ml): 80% | percent of inhibition of viral reproduction ([1]; Arbidol 20 μg/ml + Ribavirin 15 μg/ml): 82% | inhibition at 3 µg/mL [1, 6]: < 0% | inhibition at 10 µg/mL [1, 6]: 23% | inhibition at 15 µg/mL [1, 6]: 40% | inhibition at 20 µg/mL [1, 6]: 55% | inhibition of the virus ([1]; combination of 3 μg/ml of arbidol and 3.3 mg of zanamivir (oseltamivir), 2 hours after infection): 90% | Surviving mice, % ([2]; Arbidol 30 mg/kg + Oseltamivir 0.25 mg/kg): 70% | Surviving mice, % ([2]; Arbidol 30 mg/kg + Oseltamivir 1.0 mg/kg): 85% | Surviving mice, % ([2]; Arbidol 30 mg/kg + Oseltamivir 2.5 mg/kg): 100% | Surviving mice, % ([2]; Arbidol 30 mg/kg alone (Oseltamivir 0 mg/kg)): 65% | Lethal effect upon administration to mice ([3]; Dose 100 mg/kg): 0/6 | Lethal effect upon administration to mice ([3]; Dose 250 mg/kg): 0/6 | Lethal effect upon administration to mice ([3]; Dose 500 mg/kg): 1/6 | Lethal effect upon administration to mice ([3]; Dose 1000 mg/kg): 3/6 | Lethal effect upon administration to mice ([3]; Dose 3000 mg/kg): 6/6 | LD50 at 14 days ([3]; mouse, in vivo, oral, mice): 860 ± 50 mg/kg | Lethal effect upon administration to rats ([4]; Dose 100 mg/kg): 0/6 | Lethal effect upon administration to rats ([4]; Dose 250 mg/kg): 0/6 | Lethal effect upon administration to rats ([4]; Dose 500 mg/kg): 1/6 | Lethal effect upon administration to rats ([4]; Dose 1000 mg/kg): 3/6 | Lethal effect upon administration to rats ([4]; Dose 3000 mg/kg): 6/6 | LD50 at 14 days ([4]; rat, in vivo, oral, rats): 1720 ± 70 mg/kg | Percent of suppression of virus reproduction [5]: 60% | Percent of surviving mice (influenza virus H3N2; Concentration 15): 80% | Percent of surviving mice (influenza virus H3N2; Concentration 30, hydrochloride): 80% and 60% and 70%
